# Tests used:
# Assay in all cases: In vitro kinase assay (Kinase-Glo / ADP-Glo)
# Assay type in all cases: biochemical
# Details in all cases: TGI1002 1 µM; means of two independent experiments; read-out: Inhibitory effect (%)
# CAMK1 = CAMK1 (Homo sapiens, UniProt Q14012)
# Method: (§1) All kinase reactions were carried out in 384-well plates. After addition of the compounds, kinase and ATP-substrate were added to the assay plates successively, the assay plates were centrifuged at 1,000 x g for 1 min and incubated for 1 h at 30 °C. Then, Kinase-Glo Plus or ADP-Glo reagent was added to each well. In Kinase-Glo assay, after addition of the reagent for 20 min, the luminescence was measured on an EnVision Multilabel Plate Reader (Perkin-Elmer). In ADP-Glo assay, after addition of the reagent for 40 min, Kinase Detection Reagent was added and incubated for another 30 min at 27 °C, and then the luminescence was measured. Kinase inhibition rates were calculated per manufacturer's instructions.
# AMPK (A2/B1/G1) = AMPK (A2/B1/G1) (Homo sapiens, UniProt P54646)
# Method: as §1
# LCK = LCK (Homo sapiens, UniProt P06239)
# Method: as §1
# EGFR(T790M,L858R) = EGFR(T790M,L858R) (Homo sapiens, UniProt P00533, L858R/T790M)
# Method: as §1
# FLT3 = FLT3 (Homo sapiens, UniProt P36888)
# Sequence of FLT3 (P36888 27-993): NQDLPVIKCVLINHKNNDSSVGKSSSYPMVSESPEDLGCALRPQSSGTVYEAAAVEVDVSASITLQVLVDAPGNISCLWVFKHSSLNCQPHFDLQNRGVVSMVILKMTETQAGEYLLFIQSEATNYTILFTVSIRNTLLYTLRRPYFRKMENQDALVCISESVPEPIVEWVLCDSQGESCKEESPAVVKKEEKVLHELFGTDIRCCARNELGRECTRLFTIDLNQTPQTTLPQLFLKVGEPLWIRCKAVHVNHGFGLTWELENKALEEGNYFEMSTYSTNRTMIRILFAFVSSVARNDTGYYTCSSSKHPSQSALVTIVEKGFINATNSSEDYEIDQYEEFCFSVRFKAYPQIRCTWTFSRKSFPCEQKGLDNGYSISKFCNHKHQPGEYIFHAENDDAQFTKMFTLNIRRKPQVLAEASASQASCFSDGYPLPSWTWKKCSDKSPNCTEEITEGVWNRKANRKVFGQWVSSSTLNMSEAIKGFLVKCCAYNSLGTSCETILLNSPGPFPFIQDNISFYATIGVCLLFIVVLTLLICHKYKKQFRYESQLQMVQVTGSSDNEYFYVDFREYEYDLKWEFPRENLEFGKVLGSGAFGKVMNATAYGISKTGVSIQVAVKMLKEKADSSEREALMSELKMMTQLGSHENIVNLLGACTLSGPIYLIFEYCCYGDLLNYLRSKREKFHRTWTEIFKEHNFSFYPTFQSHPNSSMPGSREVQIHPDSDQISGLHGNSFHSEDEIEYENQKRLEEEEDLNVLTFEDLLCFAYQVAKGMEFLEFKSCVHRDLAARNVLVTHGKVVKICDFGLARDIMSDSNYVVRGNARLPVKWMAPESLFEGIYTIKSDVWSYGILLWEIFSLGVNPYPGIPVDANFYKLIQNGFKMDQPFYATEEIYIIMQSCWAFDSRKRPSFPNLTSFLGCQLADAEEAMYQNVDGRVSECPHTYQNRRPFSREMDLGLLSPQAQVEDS
# Method: as §1
# CDK2/CyclinA2 = CDK2/CyclinA2 (Homo sapiens, UniProt P24941)
# Method: as §1
# PKAcα = PKAcα (Homo sapiens, UniProt P17612)
# Method: as §1
# RET = RET (Homo sapiens, UniProt P07949)
# Method: as §1
# ERK1 = ERK1 (Homo sapiens, UniProt P27361)
# Method: as §1
# JNK1 = JNK1 (Homo sapiens, UniProt P45983)
# Method: as §1
# PLK1 = PLK1 (Homo sapiens, UniProt P53350)
# Method: as §1
# Aurora B = Aurora B (Homo sapiens, UniProt Q96GD4)
# Method: as §1
# BLK = BLK (Homo sapiens, UniProt P51451)
# Sequence of BLK (P51451 whole entry): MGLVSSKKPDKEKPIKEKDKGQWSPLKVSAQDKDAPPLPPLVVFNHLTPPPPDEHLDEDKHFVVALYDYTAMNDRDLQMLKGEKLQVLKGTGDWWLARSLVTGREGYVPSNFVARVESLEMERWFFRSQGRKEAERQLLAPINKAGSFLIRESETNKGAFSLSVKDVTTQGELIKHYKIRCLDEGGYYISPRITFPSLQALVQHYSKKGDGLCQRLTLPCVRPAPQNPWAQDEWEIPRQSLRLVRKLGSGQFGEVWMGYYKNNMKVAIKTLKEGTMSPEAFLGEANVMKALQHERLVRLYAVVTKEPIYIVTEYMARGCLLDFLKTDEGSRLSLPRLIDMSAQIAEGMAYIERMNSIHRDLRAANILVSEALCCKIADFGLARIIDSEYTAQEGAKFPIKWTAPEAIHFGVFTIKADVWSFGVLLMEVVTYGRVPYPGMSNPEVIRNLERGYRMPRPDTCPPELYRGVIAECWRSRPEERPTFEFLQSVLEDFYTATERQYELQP
# Method: as §1
# ABL1 = ABL1 (Homo sapiens, UniProt P00519)
# Method: as §1
# PKCξ = PKCξ (Homo sapiens, UniProt Q05513)
# Method: as §1
# BRAF(v599E) = BRAF(v599E) (Homo sapiens, UniProt P15056, V600E)
# Method: as §1
# AXL = AXL (Homo sapiens, UniProt P30530)
# Method: as §1
# PKCα = PKCα (Homo sapiens, UniProt P17252)
# Method: as §1
# IGF1R = IGF1R (Homo sapiens, UniProt P08069)
# Method: as §1
# CDK1/CyclinB = CDK1/CyclinB (Homo sapiens, UniProt P06493)
# Method: as §1
# ALK = ALK (Homo sapiens, UniProt Q9UM73)
# Method: as §1
# PLK2 = PLK2 (Homo sapiens, UniProt Q9NYY3)
# Method: as §1
# p38β = p38β (Homo sapiens, UniProt Q15759)
# Sequence of p38β (Q15759 whole entry): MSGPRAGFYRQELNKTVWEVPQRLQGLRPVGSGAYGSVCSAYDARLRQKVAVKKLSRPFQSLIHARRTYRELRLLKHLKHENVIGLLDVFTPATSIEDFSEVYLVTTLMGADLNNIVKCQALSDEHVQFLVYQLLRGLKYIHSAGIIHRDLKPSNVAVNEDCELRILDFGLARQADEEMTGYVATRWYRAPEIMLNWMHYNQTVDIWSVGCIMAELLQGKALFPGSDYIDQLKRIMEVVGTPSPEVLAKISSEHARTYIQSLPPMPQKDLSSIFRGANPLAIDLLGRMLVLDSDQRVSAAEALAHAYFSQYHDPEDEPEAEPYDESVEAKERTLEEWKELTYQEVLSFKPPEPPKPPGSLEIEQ
# Method: as §1
# KDR = KDR (Homo sapiens, UniProt P35968)
# Method: as §1
# CDK4/CyclinD1 = CDK4/CyclinD1 (Homo sapiens, UniProt P11802)
# Method: as §1
# PLK3 = PLK3 (Homo sapiens, UniProt Q9H4B4)
# Method: as §1
# FGFR1 = FGFR1 (Homo sapiens, UniProt P11362)
# Method: as §1
# AKT2 = AKT2 (Homo sapiens, UniProt P31751)
# Method: as §1
# Aurora A = Aurora A (Homo sapiens, UniProt O14965)
# Method: as §1
# InsR = InsR (Homo sapiens, UniProt P06213)
# Method: as §1
# PDGFRβ = PDGFRβ (Homo sapiens, UniProt P09619)
# Sequence of PDGFRβ (P09619 33-1106): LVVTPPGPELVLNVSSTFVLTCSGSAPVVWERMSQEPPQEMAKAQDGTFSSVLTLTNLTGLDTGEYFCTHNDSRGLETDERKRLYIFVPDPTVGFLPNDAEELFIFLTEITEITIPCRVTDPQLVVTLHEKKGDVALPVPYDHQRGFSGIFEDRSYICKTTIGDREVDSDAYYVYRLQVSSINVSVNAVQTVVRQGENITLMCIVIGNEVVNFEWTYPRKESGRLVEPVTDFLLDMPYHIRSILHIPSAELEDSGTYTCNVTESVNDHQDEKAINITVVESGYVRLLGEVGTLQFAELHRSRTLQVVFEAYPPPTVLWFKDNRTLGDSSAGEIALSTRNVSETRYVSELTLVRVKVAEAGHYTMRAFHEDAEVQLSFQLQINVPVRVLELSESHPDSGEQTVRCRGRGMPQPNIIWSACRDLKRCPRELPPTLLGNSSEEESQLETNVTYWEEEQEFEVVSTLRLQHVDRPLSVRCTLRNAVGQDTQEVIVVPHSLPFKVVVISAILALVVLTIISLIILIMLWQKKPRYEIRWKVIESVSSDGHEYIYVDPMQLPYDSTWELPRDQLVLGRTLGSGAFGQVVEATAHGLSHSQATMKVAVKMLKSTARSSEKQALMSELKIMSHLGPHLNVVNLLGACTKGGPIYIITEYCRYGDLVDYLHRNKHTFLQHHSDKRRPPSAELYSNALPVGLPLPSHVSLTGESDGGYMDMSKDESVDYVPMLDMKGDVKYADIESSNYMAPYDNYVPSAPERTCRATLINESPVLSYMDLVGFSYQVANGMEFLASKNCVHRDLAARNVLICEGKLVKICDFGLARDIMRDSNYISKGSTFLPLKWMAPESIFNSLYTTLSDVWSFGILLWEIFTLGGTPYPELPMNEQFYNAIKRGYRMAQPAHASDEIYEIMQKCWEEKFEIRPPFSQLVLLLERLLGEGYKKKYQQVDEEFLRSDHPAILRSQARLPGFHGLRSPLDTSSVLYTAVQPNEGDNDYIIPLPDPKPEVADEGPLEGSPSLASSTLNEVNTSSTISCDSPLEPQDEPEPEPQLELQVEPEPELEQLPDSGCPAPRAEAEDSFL
# Method: as §1
# PI3Kδ = PI3Kδ (Homo sapiens, UniProt O00329)
# Method: as §1
# PKAcβ = PKAcβ (Homo sapiens, UniProt P22694)
# Method: as §1
# AKT3 = AKT3 (Homo sapiens, UniProt Q9Y243)
# Method: as §1
# PI3Kα = PI3Kα (Homo sapiens, UniProt P42336)
# Sequence of PI3Kα (P42336 whole entry): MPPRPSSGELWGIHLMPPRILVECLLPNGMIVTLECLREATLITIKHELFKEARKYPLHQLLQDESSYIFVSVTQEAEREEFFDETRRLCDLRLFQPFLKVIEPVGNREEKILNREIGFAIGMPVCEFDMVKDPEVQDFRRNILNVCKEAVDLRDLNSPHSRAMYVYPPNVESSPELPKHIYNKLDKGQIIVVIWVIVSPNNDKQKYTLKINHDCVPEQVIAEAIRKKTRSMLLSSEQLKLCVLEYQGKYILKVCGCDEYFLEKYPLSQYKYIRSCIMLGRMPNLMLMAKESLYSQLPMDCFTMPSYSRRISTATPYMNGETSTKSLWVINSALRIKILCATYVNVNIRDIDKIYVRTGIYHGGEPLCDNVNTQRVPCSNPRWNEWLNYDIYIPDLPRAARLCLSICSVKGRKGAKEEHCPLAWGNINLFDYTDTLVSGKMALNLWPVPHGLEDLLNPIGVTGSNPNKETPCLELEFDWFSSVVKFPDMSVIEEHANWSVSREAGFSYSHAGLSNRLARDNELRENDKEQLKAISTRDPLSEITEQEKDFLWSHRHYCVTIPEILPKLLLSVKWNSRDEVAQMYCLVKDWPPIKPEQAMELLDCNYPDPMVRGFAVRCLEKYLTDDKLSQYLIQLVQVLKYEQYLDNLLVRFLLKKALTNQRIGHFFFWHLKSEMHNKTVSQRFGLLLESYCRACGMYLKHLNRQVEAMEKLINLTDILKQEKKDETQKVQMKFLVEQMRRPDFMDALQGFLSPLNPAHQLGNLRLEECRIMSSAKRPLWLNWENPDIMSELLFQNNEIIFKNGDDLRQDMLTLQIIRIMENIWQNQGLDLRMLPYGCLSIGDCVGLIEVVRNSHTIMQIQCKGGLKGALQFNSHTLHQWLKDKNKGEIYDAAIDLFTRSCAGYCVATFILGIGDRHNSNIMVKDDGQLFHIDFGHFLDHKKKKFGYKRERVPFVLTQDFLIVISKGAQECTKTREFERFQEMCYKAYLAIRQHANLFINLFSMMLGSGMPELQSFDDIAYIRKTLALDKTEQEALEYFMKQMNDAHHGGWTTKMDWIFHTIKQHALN
# Sequence of PI3Kα (P27986 whole entry partner): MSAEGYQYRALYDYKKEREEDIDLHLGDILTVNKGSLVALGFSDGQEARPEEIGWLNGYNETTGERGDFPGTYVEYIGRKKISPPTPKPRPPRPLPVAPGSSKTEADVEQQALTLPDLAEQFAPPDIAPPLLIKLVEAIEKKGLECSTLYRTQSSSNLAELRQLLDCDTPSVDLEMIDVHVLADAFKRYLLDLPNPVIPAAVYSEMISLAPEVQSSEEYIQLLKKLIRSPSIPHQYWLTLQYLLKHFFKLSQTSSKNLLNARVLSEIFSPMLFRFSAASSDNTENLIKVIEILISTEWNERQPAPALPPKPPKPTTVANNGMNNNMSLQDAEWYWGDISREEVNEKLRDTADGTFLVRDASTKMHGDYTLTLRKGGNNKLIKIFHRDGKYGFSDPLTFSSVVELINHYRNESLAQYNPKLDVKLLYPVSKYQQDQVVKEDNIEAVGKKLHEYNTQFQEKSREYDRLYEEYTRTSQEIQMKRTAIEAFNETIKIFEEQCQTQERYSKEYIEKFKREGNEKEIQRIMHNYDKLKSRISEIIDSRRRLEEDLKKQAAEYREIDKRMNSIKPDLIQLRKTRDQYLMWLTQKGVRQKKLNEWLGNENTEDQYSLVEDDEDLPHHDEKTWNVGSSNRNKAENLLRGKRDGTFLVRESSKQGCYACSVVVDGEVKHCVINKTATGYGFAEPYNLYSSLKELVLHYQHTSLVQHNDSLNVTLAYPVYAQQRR
# Method: as §1
# HER2 = HER2 (Homo sapiens, UniProt P04626)
# Method: as §1
# ERK2(MAPK1) = ERK2(MAPK1) (Homo sapiens, UniProt P28482)
# Sequence of ERK2(MAPK1) (P28482 whole entry): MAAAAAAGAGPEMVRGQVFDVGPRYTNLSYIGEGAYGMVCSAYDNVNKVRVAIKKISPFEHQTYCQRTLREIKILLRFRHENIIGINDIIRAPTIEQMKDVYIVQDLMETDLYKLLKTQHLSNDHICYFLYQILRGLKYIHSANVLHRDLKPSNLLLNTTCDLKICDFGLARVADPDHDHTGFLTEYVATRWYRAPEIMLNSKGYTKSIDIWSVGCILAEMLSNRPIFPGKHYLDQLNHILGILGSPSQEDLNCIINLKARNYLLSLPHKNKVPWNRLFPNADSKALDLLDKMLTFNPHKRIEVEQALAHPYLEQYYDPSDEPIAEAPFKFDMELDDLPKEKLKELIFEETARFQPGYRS
# Method: as §1
# PKAcr = PKAcr (Homo sapiens, UniProt P22612)
# Method: as §1
# CDK1/CyclinA2 = CDK1/CyclinA2 (Homo sapiens, UniProt P06493)
# Method: as §1
# GSK3α = GSK3α (Homo sapiens, UniProt P49840)
# Method: as §1
structure (smiles),measurement,setting,value
"Cc1ccc(NC(=O)c2cccc(CN3CCN(C)CC3)c2)cc1Oc1nccc(-c2cccnc2)n1.Cl [TGI1002, N-(4-methyl-3-((4-(pyridin-3-yl)-pyrimidin-2-yl)oxy)phenyl)-3-((4-methylpiperazin-1-yl)methyl)benzamide hydrochloride]",inhibition at 1 µM,CAMK1,4.93%
same,inhibition at 1 µM,AMPK (A2/B1/G1),2.57%
same,inhibition at 1 µM,LCK,5.82%
same,inhibition at 1 µM,"EGFR(T790M,L858R)",8.74%
same,inhibition at 1 µM,FLT3,2.97%
same,inhibition at 1 µM,CDK2/CyclinA2,1.54%
same,inhibition at 1 µM,PKAcα,5.96%
same,inhibition at 1 µM,RET,12.2%
same,inhibition at 1 µM,ERK1,0.01%
same,inhibition at 1 µM,JNK1,0.2%
same,inhibition at 1 µM,PLK1,1.63%
same,inhibition at 1 µM,Aurora B,0%
same,inhibition at 1 µM,BLK,3.39%
same,inhibition at 1 µM,ABL1,4.3%
same,inhibition at 1 µM,PKCξ,13.3%
same,inhibition at 1 µM,BRAF(v599E),3.61%
same,inhibition at 1 µM,AXL,3.03%
same,inhibition at 1 µM,PKCα,5.57%
same,inhibition at 1 µM,IGF1R,8.65%
same,inhibition at 1 µM,CDK1/CyclinB,3.24%
same,inhibition at 1 µM,ALK,4.27%
same,inhibition at 1 µM,PLK2,3.52%
same,inhibition at 1 µM,p38β,0.2%
same,inhibition at 1 µM,KDR,0.64%
same,inhibition at 1 µM,CDK4/CyclinD1,7.54%
same,inhibition at 1 µM,PLK3,4.71%
same,inhibition at 1 µM,FGFR1,9.71%
same,inhibition at 1 µM,AKT2,4.72%
same,inhibition at 1 µM,Aurora A,24.6%
same,inhibition at 1 µM,InsR,3.7%
same,inhibition at 1 µM,PDGFRβ,17.2%
same,inhibition at 1 µM,PI3Kδ,0.71%
same,inhibition at 1 µM,PKAcβ,6.5%
same,inhibition at 1 µM,AKT3,3.62%
same,inhibition at 1 µM,PI3Kα,2.66%
same,inhibition at 1 µM,HER2,7.88%
same,inhibition at 1 µM,ERK2(MAPK1),0%
same,inhibition at 1 µM,PKAcr,1.45%
same,inhibition at 1 µM,CDK1/CyclinA2,5.27%
same,inhibition at 1 µM,GSK3α,2.6%

# From PMC4494927, “Discovery of a small molecule targeting SET-PP2A interaction to overcome BCR-ABLT315I mutation of chronic myeloid leukemia” (Oncotarget, 2015)
